According to PMC7549094 (Journal of Medicinal Chemistry, 2020):
Where two headings read alike, the source gives them in different places.

Experiments:
hr TP ag = biological target: T1, hr TP ag (Homo sapiens, UniProt P21731); assay: receptor profile (Table S4); assay type: biochemical
T1 sequence (P21731 1-343): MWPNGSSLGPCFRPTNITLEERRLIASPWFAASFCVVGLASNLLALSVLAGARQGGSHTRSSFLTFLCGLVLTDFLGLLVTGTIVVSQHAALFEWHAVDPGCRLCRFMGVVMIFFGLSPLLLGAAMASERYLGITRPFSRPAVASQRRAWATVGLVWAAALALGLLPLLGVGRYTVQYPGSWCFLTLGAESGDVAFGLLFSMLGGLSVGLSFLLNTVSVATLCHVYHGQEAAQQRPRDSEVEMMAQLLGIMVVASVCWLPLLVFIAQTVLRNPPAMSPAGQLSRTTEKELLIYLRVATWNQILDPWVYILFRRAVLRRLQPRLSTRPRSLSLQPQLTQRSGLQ

[1] = metabolite profile in monkey hepatocytes; assay type: in vitro ADME; settings: 10 μM of 1 for 4 h, UV 250 nm, normalized to largest peak
hr PXR antag = hr PXR antag (Homo sapiens, UniProt O75469); assay: receptor profile (Table S4); settings: hr PXR antag
PXR = PXR (Homo sapiens, UniProt O75469); assay: receptor profile (Table S4); settings: human
hr OpD = hr OpD (Homo sapiens, UniProt P41143); assay: receptor profile (Table S4); assay type: binding
rVMAT2 uptake = rVMAT2 uptake (Rattus norvegicus, UniProt Q01827); assay: receptor profile (Table S4); assay type: biochemical
[2] = pharmacokinetics, summary across preclinical species; assay type: in vivo, rat, dog, cynomolgus monkey
hr M1 = biological target: T2, hr M1 (Homo sapiens, UniProt P11229); assay: receptor profile (Table S4); assay type: binding
T2 sequence (P11229 1-460): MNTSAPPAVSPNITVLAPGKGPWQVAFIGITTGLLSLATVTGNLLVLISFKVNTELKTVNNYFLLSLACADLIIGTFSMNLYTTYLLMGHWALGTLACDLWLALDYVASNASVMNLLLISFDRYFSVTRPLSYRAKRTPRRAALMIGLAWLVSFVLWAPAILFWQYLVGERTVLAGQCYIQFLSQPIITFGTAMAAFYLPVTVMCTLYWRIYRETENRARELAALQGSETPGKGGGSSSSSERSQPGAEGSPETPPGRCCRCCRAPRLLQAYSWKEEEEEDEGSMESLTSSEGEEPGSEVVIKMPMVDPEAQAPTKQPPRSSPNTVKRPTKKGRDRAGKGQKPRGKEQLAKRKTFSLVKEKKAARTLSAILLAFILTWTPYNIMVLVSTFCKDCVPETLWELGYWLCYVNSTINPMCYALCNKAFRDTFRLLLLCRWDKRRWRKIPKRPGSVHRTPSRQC

hr PR ag = biological target: T3, hr PR ag (Homo sapiens, UniProt P06401); assay: receptor profile (Table S4); assay type: biochemical
T3 sequence (P06401 1-933): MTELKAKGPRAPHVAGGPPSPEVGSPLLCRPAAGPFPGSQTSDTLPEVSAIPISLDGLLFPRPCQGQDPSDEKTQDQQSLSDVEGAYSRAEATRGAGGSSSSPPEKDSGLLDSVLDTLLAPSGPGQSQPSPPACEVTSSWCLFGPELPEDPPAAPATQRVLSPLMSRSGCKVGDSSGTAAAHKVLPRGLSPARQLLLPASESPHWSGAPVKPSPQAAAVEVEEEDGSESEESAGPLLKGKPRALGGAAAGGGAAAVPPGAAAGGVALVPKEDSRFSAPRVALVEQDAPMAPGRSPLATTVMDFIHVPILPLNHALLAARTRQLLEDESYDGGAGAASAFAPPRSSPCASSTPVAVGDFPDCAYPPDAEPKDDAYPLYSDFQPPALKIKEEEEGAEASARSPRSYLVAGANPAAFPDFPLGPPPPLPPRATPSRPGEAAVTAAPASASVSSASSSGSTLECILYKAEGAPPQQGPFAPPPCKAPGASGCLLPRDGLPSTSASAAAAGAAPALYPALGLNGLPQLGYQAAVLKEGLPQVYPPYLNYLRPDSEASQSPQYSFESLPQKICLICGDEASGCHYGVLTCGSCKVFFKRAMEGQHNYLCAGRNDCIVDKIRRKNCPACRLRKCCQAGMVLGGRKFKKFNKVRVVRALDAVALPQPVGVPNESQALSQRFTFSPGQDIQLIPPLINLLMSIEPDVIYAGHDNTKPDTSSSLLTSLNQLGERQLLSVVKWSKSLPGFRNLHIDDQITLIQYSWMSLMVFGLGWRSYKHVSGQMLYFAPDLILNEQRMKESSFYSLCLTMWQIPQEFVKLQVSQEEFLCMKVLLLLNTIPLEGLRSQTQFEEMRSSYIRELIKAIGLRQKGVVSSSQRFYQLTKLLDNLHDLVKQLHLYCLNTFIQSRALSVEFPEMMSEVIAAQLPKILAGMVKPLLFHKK

[3] = microsomal extraction ratio, 1 h incubation in microsomes
[4] = microsomal extraction ratio, 1 h incubation in microsomes; remark: listed apart in the source
hr NET = hr NET (Homo sapiens, UniProt P23975); assay: receptor profile (Table S4); assay type: binding
Chain of hr NET (P23975 whole entry): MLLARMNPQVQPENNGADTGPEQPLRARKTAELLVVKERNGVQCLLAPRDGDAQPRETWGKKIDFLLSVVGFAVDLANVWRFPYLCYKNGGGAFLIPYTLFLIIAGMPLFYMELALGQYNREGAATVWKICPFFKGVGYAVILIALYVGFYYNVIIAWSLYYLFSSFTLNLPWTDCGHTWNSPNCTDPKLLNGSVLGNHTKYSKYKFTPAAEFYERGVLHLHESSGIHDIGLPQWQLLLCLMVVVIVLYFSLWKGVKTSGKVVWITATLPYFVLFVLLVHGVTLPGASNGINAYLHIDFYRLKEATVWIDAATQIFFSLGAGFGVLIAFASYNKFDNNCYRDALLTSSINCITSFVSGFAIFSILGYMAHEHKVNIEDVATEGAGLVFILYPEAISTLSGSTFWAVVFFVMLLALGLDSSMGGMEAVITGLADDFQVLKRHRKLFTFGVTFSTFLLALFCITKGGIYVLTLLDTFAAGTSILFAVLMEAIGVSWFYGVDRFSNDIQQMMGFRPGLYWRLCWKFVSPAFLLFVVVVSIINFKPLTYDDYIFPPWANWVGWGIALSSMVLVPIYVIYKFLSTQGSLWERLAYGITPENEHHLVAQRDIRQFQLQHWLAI

Chain of rVMAT2 uptake (Q01827 whole entry): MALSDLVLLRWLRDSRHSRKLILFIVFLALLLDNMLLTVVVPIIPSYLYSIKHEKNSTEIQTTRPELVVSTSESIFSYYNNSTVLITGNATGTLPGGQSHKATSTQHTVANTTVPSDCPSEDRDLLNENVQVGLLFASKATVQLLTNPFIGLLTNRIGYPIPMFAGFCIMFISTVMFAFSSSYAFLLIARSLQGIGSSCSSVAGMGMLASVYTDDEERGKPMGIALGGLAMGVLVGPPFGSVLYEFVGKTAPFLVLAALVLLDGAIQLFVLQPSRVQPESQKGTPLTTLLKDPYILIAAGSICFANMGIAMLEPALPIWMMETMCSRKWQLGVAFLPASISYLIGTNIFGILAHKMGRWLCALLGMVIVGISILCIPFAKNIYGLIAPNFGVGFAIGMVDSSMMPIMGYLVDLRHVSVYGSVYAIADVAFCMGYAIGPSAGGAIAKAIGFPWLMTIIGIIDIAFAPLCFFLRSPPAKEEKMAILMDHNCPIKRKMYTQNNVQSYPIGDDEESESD
Chain of hr OpD (P41143 whole entry): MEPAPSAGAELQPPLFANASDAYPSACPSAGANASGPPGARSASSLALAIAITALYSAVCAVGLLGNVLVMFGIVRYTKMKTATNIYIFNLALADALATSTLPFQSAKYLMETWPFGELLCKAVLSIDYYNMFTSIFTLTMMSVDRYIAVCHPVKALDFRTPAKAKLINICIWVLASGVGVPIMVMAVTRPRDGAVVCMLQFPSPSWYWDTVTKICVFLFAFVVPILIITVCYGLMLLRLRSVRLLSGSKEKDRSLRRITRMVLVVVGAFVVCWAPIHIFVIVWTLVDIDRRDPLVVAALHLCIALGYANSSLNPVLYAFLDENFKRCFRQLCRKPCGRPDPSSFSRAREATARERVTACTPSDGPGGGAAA
Chain of hr PXR antag (O75469 whole entry): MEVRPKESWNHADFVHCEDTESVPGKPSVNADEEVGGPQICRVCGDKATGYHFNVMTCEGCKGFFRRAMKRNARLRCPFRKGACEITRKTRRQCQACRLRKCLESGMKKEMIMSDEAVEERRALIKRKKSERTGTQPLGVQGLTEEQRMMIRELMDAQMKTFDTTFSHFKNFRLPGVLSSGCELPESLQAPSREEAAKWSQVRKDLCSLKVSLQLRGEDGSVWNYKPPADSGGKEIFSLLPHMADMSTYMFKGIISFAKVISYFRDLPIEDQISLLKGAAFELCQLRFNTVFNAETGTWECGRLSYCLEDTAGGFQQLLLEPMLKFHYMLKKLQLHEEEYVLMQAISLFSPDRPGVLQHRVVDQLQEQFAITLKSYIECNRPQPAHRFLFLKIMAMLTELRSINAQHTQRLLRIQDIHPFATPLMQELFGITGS
Chain of PXR (O75469 whole entry): as above

Structure (SMILES): Cc1nc(C)c(C(=O)Nc2ccc(F)c(-c3nc4ncc(-c5ncccc5C)cn4n3)c2)o1 [compound 1, N-(4-Fluoro-3-(6-(3-methylpyridin-2-yl)-[1,2,4]triazolo[1,5-a]pyrimidin-2-yl)phenyl)-2,4-dimethyloxazole-5-carboxamide]
- EC50/IC50 (hr TP ag; hr TP ag): > 30 µM
- inhibition at 10 µM (hr TP ag; read-out: % inh/act @ 10 µM): -5%
- inhibition at 30 µM (hr TP ag; read-out: % inh/act @ 30 µM): -2%
- abundance monkey [1]: +++ (+++ > 75%)
- EC50/IC50 (hr PXR antag): > 30 µM
- inhibition at 10 µM (PXR): 26%
- EC50/IC50 (hr OpD; hr OpD): > 30 µM
- inhibition at 10 µM (hr OpD; read-out: % inh/act @ 10 µM): 22%
- inhibition at 30 µM (hr OpD; read-out: % inh/act @ 30 µM): 33%
- EC50/IC50 (rVMAT2 uptake; rVMAT2 uptake): 3.9 µM
- inhibition at 10 µM (rVMAT2 uptake; read-out: % inh/act @ 10 µM): 64%
- inhibition at 30 µM (rVMAT2 uptake; read-out: % inh/act @ 30 µM): 78%
- inhibition at 10 µM (rVMAT2 uptake; read-out: VMAT2 inhibition): 61%
- bioavailability ([2]; Balb/c (mouse), Wistar (rat), beagle (dog), rat, dog, cynomolgus monkey, in vivo, po, across the tested species, conventional suspension formulations): 27 to 67%
- half-life ([2]; male, Balb/c (mouse), Wistar (rat), beagle (dog), rat, dog, cynomolgus monkey, in vivo, across species following IV administration, read-out: plasma terminal half-life): 180 to 600 min
- CL as % of hepatic blood flow ([2]; mouse, rat, and monkey, IV, fumarate salt): 2–17 % of hepatic blood flow
- EC50/IC50 (hr M1; hr M1): > 30 µM
- inhibition at 10 µM (hr M1; read-out: % inh/act @ 10 µM): 25%
- inhibition at 30 µM (hr M1; read-out: % inh/act @ 30 µM): 26%
- EC50/IC50 (hr PR ag; hr PR ag): > 30 µM
- inhibition at 10 µM (hr PR ag; read-out: % inh/act @ 10 µM): -2%
- inhibition at 30 µM (hr PR ag; read-out: % inh/act @ 30 µM): 0%
- ER mouse [3]: < 0.21
- ER dog [4]: < 0.24
- EC50/IC50 (hr NET; hr NET): > 30 µM
- inhibition at 10 µM (hr NET; read-out: % inh/act @ 10 µM): 19%
- inhibition at 30 µM (hr NET; read-out: % inh/act @ 30 µM): 24%
